# Measured values published in article PMC4407702 (International journal of pharmaceutics, 2011).
# Where “and” joins values, the source holds several entries; their conditions need not be identical. Identical values can stand only once. Like-named read-outs stand apart in the source and are kept apart here.
# How the values were obtained:
# Caco-2 cell monolayers [1] = assay: Transepithelial transport across Caco-2 cell monolayers; format: in vitro ADME
# [2] = as above; format: in vitro ADME; details: human, Caco-2
# SVCT [3] = target: SVCT (Canis lupus familiaris, UniProt A8CX01); assay: Inhibition of [14C]AA uptake in MDCK-MDR1 cells; format: cell-based, canine; details: 200 μM unlabeled compound, [14C]AA 23.5 μM
# SVCT (Canis lupus familiaris, UniProt A8CX01), sequence (A8CX01 1-605): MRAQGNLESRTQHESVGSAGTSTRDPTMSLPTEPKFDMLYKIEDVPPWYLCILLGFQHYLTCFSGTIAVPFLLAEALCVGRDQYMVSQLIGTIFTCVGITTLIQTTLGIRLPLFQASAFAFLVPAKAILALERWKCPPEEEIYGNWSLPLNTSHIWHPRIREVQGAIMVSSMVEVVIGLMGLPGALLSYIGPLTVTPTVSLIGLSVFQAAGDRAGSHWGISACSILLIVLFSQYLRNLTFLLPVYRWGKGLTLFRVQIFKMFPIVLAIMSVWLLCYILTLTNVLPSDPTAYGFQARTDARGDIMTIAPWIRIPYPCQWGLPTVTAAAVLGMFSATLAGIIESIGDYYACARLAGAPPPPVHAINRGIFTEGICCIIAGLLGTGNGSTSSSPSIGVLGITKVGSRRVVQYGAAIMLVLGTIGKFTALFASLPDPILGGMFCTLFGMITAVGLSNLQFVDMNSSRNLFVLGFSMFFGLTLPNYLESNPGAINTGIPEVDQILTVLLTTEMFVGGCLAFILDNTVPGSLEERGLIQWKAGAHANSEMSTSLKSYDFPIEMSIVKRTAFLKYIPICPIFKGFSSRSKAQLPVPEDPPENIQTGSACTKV
# SVCT [4] = target: SVCT (Homo sapiens, UniProt Q9UHI7); assay: Inhibition of [14C]AA uptake in Caco-2 cells; format: cell-based; details: 200 μM unlabeled compound, [14C]AA 23.5 μM
# SVCT (Homo sapiens, UniProt Q9UHI7), sequence (Q9UHI7 whole entry): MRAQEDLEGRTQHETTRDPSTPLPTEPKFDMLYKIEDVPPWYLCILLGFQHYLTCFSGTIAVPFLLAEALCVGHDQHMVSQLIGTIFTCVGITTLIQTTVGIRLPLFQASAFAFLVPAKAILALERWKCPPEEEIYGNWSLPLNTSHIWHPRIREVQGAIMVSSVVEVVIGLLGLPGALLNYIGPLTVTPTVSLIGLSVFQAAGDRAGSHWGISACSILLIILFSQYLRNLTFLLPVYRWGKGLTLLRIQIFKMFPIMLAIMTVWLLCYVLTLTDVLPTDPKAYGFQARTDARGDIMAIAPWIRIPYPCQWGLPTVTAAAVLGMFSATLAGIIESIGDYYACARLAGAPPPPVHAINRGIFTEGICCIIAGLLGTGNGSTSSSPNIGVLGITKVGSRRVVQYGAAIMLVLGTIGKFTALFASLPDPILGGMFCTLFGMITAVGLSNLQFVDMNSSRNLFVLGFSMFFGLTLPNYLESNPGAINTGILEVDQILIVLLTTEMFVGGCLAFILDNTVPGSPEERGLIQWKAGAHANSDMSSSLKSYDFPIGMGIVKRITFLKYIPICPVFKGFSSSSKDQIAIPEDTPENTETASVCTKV
# Caco-2 cell monolayers [5] = details: ref Ucpinar and Stavchansky, 2003; cited from earlier work
# Aqueous solubility study = format: physicochemical; details: distilled deionized water, 25 °C, thermodynamic from solid
# [6] = test system: MDCK-MDR1 cell monolayers; details: ref Jain et al., 2005; cited from earlier work
# [7] = Caco-2, [14C]AA 23.5 μM or AA-Su-Saq 25 μM donor, 3 h
P(A–B) (Caco-2 cell monolayers [1]; [7]),P(B–A) (Caco-2 cell monolayers [1]; [7]),PA–B and PB–A in Caco-2 cells higher than in MDCK-MDR1 cells (Caco-2 cell monolayers [1]; Caco-2 vs MDCK-MDR1),"Papp A→B at 3 h, 23.5 μM [2]","Papp B→A at 3 h, 23.5 μM [2]",Uptake of [14C]AA diminished (inhibition) (SVCT [3]),Inhibition of [14C]AA uptake (SVCT [4]),solubility at 24 h (Aqueous solubility study),Structure (SMILES),P(A–B) (Caco-2 cell monolayers [5]),P(B–A) (Caco-2 cell monolayers [5]),P(A–B) [6],P(B–A) [6],PA–B [6]
"17.6 ± 0.39 cm/s, × 10^−6","15.5 ± 3.11 cm/s, × 10^−6",about 2 fold,17.6 ± 0.39 ×10⁻⁶ cm/s,15.5 ± 3.11 ×10⁻⁶ cm/s,65%,66%,–,"O=C1O[C@H]([C@@H](O)CO)C(O)=C1O [AA, L-Ascorbic acid]",–,–,–,–,–
–,–,–,–,–,–,–,1750 ± 290 µM,"CC(C)(C)NC(=O)[C@@H]1C[C@@H]2CCCC[C@@H]2CN1C[C@@H](O)[C@H](Cc1ccccc1)NC(=O)[C@H](CC(N)=O)NC(=O)c1ccc2ccccc2n1 [Saq, Saquinavir]","0.93 cm/s, × 10^−6 and 0.93 ±0.10 cm/s, × 10^−6","20.39 ± 1.53 cm/s, × 10^−6","0.463 ± 0.025 cm/s, × 10^−6","19.9 ± 1.70 cm/s, × 10^−6",0.463 ×10⁻⁶ cm/s
